Laboratory results: patent US7419961B2, “9a-azalides with anti-inflammatory activity” (Zambon S.p.A., priority 2002, dated 2008)
≈ marks a conversion by molar mass, not a printed value.

How the values were obtained:
[1] = system: mouse ear edema induced by PMA (phorbol myristate acetate); test: Acute contact dermatitis: TPA-induced auricular edema; assay type: in vivo, CD1 mice; conditions: 500 μg/ear topical in TPDS, 30 min before TPA 0.01%, sacrifice 6 h later
Method: Groups of 5-6 CD1 mice (18-24 g) were used. • Administration of the Compounds All the macrolide derivatives were dissolved in Trans-phase Delivery System (TPDS), a vehicle containing benzyl alcohol 10%, acetone 40% and isopropanol 50%. 15 microliters of the compounds (500 μg), dissolved in TPDS, were applied topically to the internal surface of one ear; 30 minutes later, 12 microliters of a solution of tetradecanoyl phorbol acetate (TPA) at a concentration of 0.01% dissolved in acetone, were applied to the same area. Six hours later, the animals were sacrificed by inhalation of CO2. • Evaluation of the Results Two methods were used for assessing the auricular edema: • a) Weighing a defined portion of auricular pinna. • b) Measurement of auricular thickness using precision spring calipers. The degree of edema was calculated by subtracting the weight or the thickness of the untreated ear from that of the treated contralateral ear. To determine the degree of remission of the edema, the difference (weight or thickness) of the groups treated with TPA+macrolides relative to those treated with just TPA was compared. The activity of the macrolides was measured using the modified method of Zunic et al. (1998): MDL (Lysyl) GDP, a non-toxil muramyl dipeptide derivative inhibits cytokine production by activated macrophages and protects mice from phorbol ester- and oxazolone-induced inflammation (J. Invest. Dermatol., 111 (1), 77-82). The data relating to erythromycin and azithromycin refer to treatment in a single dose at 500 μg/ear.

[2] = system: Enterococcus faecalis ATCC 29212; test: Antibiotic activity, MIC in liquid culture medium; assay type: cell-based; conditions: ATCC29212, lowest concentration that completely inhibits visible growth, read-out: Enter. faec. ATCC 29212 MIC
Method: (§1) The MIC values were determined in liquid culture medium by the technique described in the “Manual of Clinical Microbiology, 7th edition (1999), American Society for Microbiology”.

[3] = system: Staphylococcus aureus ATCC 29213; test: Antibiotic activity, MIC in liquid culture medium; assay type: cell-based; conditions: ATCC29213, lowest concentration that completely inhibits visible growth, read-out: Sta. aureus ATCC 29213 MIC
Method: as §1

[4] = system: Streptococcus pneumoniae ATCC 49619; test: Antibiotic activity, MIC in liquid culture medium; assay type: cell-based; conditions: ATCC49619, lowest concentration that completely inhibits visible growth, read-out: Str. pneum. ATTC 49619 MIC
Method: as §1

[5] = system: accumulation of neutrophils in the rat lung induced by LPS; test: LPS-induced pulmonary inflammation in the rat; assay type: in vivo; conditions: oral single dose 100, 40 and 10 μmol/kg one hour before LPS 0.4 mg/kg endotracheally; 20 h; erythromycin: single oral dose 130 μmol/kg
Method: The rats were given a single dose of 0.4 mg/kg of LPS (E. coli, serotype 026:6) endotracheally, by the trans-oral route. Tracheal instillation was carried out under halothane anesthesia and 20 hours after the endotracheal administration of LPS/saline solution the animals were sacrificed by urethane overdose. • Washing
The lungs were washed with four aliquots each of 5 ml of saline solution with heparin 10 IU/ml. The cellular suspension was concentrated by low-speed centrifugation and the cellular pellet was suspended. • Cell Count and Differentiation
The total cell count was obtained using a hemocytometer.
The differential count was obtained from cytospin preparations stained with May-Grunwald-Giemsa (Tamaoki J., Tagaya E., Yamawaki I., Sakai N., Nagai A., Konno K., 1995. Effect of erythromycin on endotoxin-induced microvascular leakage in the rat trachea and lungs. Am. J. Respir. Crit. Care Med., 151, 1582-8). The rats received the test compounds orally at a dose of 100, 40 and 10 μmol/kg as a single dose administered orally one hour before exposure to LPS.
The ED/50 value is the dose that caused 50% reduction in the neutrophil count in the bronchial wash fluid.
The result for erythromycin relates to oral treatment in a single dose with 130 μmol/kg.

[6] = system: Staphylococcus aureus ATCC 6538; test: Antibiotic activity at 128 μg/ml; assay type: cell-based
Method: as §1

[7] = system: Streptococcus pyogenes ATCC 19615; test: Antibiotic activity at 128 μg/ml; assay type: cell-based
Method: as §1

[8] = method a: weighing a defined portion of auricular pinna

Structure (SMILES) | MIC [2] [µg/mL] | inhibition in vivo at 500 µg/ear [1, 8] [%] | further results
CC[C@H]1OC(=O)[C@H](C)[C@@H](O)[C@H](C)[C@@H](O[C@@H]2O[C@H](C)C[C@H](N(C)C)[C@H]2O)C(C)(O)C[C@@H](C)CN(CCCNCCCCCCNCc2ccccc2)[C@H](C)[C@@H](O)[C@]1(C)O (stereo partly drawn) [Compound 12] | > 128 | – | inhibition in vivo at 500 µg/ear ([1]; method b: auricular thickness using precision spring calipers): 39.5%; MIC [3]: > 128 µg/mL; MIC [4]: 64 µg/mL (≈ 77.7 µM)
CC[C@H]1OC(=O)[C@H](C)[C@@H](O[C@H]2C[C@@](C)(OC)[C@@H](O)[C@H](C)O2)[C@H](C)[C@@H](O[C@@H]2O[C@H](C)C[C@H](N(C)C)[C@H]2O)[C@](C)(O)C[C@@H](C)CN(C)[C@H](C)[C@@H](O)[C@]1(C)O [Azithromycin, reference compound] | – | 40 | –
CC[C@H]1OC(=O)[C@H](C)[C@@H](O)[C@H](C)[C@@H](O[C@@H]2O[C@H](C)C[C@H](N(C)C)[C@H]2O)C(C)(O)C[C@@H](C)CN(CCCNCc2c[nH]cn2)[C@H](C)[C@@H](O)[C@]1(C)O (stereo partly drawn) [Compound 8] | – | 29.7 | –
CC[C@H]1OC(=O)[C@H](C)[C@@H](O)[C@H](C)[C@@H](O[C@@H]2O[C@H](C)C=C[C@H]2O)C(C)(O)C[C@@H](C)CN(C)[C@H](C)[C@@H](O)[C@]1(C)O (stereo partly drawn) [Compound 3] | – | 34.4 | –
CC[C@H]1OC(=O)[C@H](C)[C@@H](O)[C@H](C)[C@@H](O[C@@H]2O[C@H](C)C[C@H]([N+](C)(C)[O-])[C@H]2O)C(C)(O)C[C@@H](C)CN(C)[C@H](C)[C@@H](O)[C@]1(C)O (stereo partly drawn) [Compound 1] | > 128 | 56.7 | ED/50 (dose that caused 50% reduction in the neutrophil count in the bronchial wash fluid) [5]: 10 µmol/kg; Sta. aureus ATCC 6538 128 (μg/ml) [6]: not active; Str. pyogen. ATTC 19615 128 (μg/ml) [7]: not active
CC[C@H]1OC(=O)[C@H](C)[C@@H](O)[C@H](C)[C@@H](O[C@@H]2O[C@H](C)C[C@H](N(C)C(C)=O)[C@H]2O)C(C)(O)C[C@@H](C)CN(C)[C@H](C)[C@@H](O)[C@]1(C)O (stereo partly drawn) [Compound 5] | – | 40.5 | –
CC[C@H]1OC(=O)[C@H](C)[C@@H](O)[C@H](C)[C@@H](O[C@@H]2O[C@H](C)C[C@H]([N+](C)(C)[O-])[C@H]2O)C(C)(O)C[C@@H](C)C[N+](C)([O-])[C@H](C)[C@@H](O)[C@]1(C)O (stereo partly drawn) [Compound 2] | – | 25.3 | –
CC[C@H]1OC(=O)[C@H](C)[C@@H](O)[C@H](C)[C@@H](O[C@@H]2O[C@H](C)CC[C@H]2O)C(C)(O)C[C@@H](C)CN(C)[C@H](C)[C@@H](O)[C@]1(C)O (stereo partly drawn) [Compound 4] | – | 16.5 | –
CC[C@H]1OC(=O)[C@H](C)[C@@H](O)[C@H](C)[C@@H](O[C@@H]2O[C@H](C)CC[C@H]2O)C(C)(O)C[C@@H](C)CN(CCCNCCNCc2nccs2)[C@H](C)[C@@H](O)[C@]1(C)O (stereo partly drawn) [Compound 13] | – | 44.7 | –
CC[C@H]1OC(=O)[C@H](C)[C@@H](O)[C@H](C)[C@@H](O[C@@H]2O[C@H](C)C[C@H](N(C)C)[C@H]2O)C(C)(O)C[C@H](C)CN(CCCNCc2nccs2)[C@H](C)[C@@H](O)[C@]1(C)O (stereo partly drawn) [Compound 6] | 64 (≈ 87.6 µM) | – | MIC [3]: 64 µg/mL (≈ 87.6 µM); MIC [4]: 8 µg/mL (≈ 10.9 µM)
CC[C@H]1OC(=O)[C@H](C)[C@@H](O[C@H]2C[C@@](C)(OC)[C@@H](O)[C@H](C)O2)[C@H](C)[C@@H](O[C@@H]2O[C@H](C)C[C@H](N(C)C)[C@H]2O)[C@](C)(O)C[C@@H](C)C(=O)[C@H](C)[C@@H](O)[C@]1(C)O [Erythromycin, erythromycin, reference compound] | 1 (≈ 1.36 µM) | 42 | ED/50 (dose that caused 50% reduction in the neutrophil count in the bronchial wash fluid) [5]: not active; MIC [3]: 0.25 µg/mL (≈ 0.341 µM); MIC [4]: 0.12 µg/mL (≈ 0.164 µM)
